SMILES strings stand for the structures.

Holding throughout (test): Greenhouse experiment, pre-emergence treatment
Common to all, as to settings: pre-emergence method

Assay [1] deals with APESV. The class given is in vivo, Apera spica-venti. The text has this:
(§1) The culture containers used were plastic flowerpots containing loamy sand with approximately 3.0% of humus as the substrate. The seeds of the test plants were sown separately for each species.
(§2) For the pre-emergence treatment, the active ingredients, which had been suspended or emulsified in water, were applied directly after sowing by means of finely distributing nozzles. The containers were irrigated gently to promote germination and growth and subsequently covered with transparent plastic hoods until the plants had rooted. This cover caused uniform germination of the test plants, unless this had been impaired by the active ingredients.
(§3) Depending on the species, the plants were kept at 10-25° C. or 20-35° C., respectively.
(§4) The test period extended over 2 to 4 weeks. During this time, the plants were tended, and their response to the individual treatments was evaluated.
(§5) Evaluation was carried out using a scale from 0 to 100. 100 means no emergence of the plants, or complete destruction of at least the aerial moieties, and 0 means no damage, or normal course of growth. A moderate herbicidal activity is given at values of at least 60, a good herbicidal activity is given at values of at least 70, and a very good herbicidal activity is given at values of at least 85.
(§6) The plants used in the greenhouse experiments were of the following species: […]

Assay [2] has as its system AMARE. The class given is in vivo, Amaranthus retroflexus. The text has this: (§7) The seeds of the test plants were sown separately for each species. For the pre-emergence treatment, the active ingredients, which had been suspended or emulsified in water, were applied directly after sowing by means of finely distributing nozzles. The containers were irrigated gently to promote germination and growth and subsequently covered with transparent plastic hoods until the plants had rooted. This cover caused uniform germination of the test plants, unless this had been impaired by the active ingredients. Depending on the species, the plants were kept at 10-25° C. or 20-35° C., respectively. The test period extended over 2 to 4 weeks. During this time, the plants were tended, and their response to the individual treatments was evaluated. Evaluation was carried out using a scale from 0 to 100. 100 means no emergence of the plants, or complete destruction of at least the aerial moieties, and 0 means no damage, or normal course of growth. A moderate herbicidal activity is given at values of at least 60, a good herbicidal activity is given at values of at least 70, and a very good herbicidal activity is given at values of at least 85. […] [table]

Assay [3] relates to ECHCG. The class given is in vivo, Echinochloa crus-galli.
Source text: as §1, §2, §3, §4, §5, §6

In assay [4] the test system is SETFA. In kind it is in vivo, Setaria faberi.
Source text: as §7

Consider `CC(C)(F)c1nc(N)nc(Nc2c(F)cccc2Oc2cccc(F)c2)n1` [Example 10], for which, in assay [1] (application rate 0.5 kg/ha), the “herbicidal activity against APESV” value was “very good (a very good herbicidal activity is given at values of at least 85)”. Also, the “herbicidal activity against AMARE” value in assay [2] (application rate 0.5 kg/ha) is listed as “very good (a very good herbicidal activity is given at values of at least 85)”. Further, the “herbicidal activity against ECHCG” value in assay [3] (application rate 0.5 kg/ha) is given as “very good (a very good herbicidal activity is given at values of at least 85)”.
With `Cc1cc(C)cc(Oc2cccc(F)c2Nc2nc(N)nc(CC(C)C)n2)c1` [Example 17], the “herbicidal activity against APESV” value in assay [1] (application rate 1000 g/ha) is given as “good (a good herbicidal activity is given at values of at least 70)”. Moreover, in assay [4] (application rate 1000 g/ha), the “herbicidal activity against SEFTA” value is on record as “very good (a very good herbicidal activity is given at values of at least 85)”.
`Cc1cc(C)cc(Oc2cccc(F)c2Nc2nc(N)nc(C(C)C)n2)c1` [Example 19]: the “herbicidal activity against APESV” value in assay [1] (application rate 0.25 kg/ha) and in assay [1] (application rate 250 g/ha) was “very good (a very good herbicidal activity is given at values of at least 85)” throughout. Besides, the “herbicidal activity against ECHCG” value in assay [3] (application rate 0.25 kg/ha) and in assay [3] (application rate 250 g/ha) was “very good (a very good herbicidal activity is given at values of at least 85)” throughout. In assay [4] (application rate 0.25 kg/ha), the “herbicidal activity against SETFA” value was “very good (a very good herbicidal activity is given at values of at least 85)”. For the same molecule, in assay [4] (application rate 250 g/ha), the “herbicidal activity against SEFTA” value is “very good (a very good herbicidal activity is given at values of at least 85)”.
For the molecule `COc1cc(OC)cc(Oc2cccc(F)c2Nc2nc(N)nc(C(C)(C)F)n2)c1` [Example 27], the “herbicidal activity against APESV” value in assay [1] (application rate 0.25 kg/ha) is “very good (a very good herbicidal activity is given at values of at least 85)”. Moreover, the “herbicidal activity against ECHCG” value in assay [3] (application rate 0.25 kg/ha) is listed as “very good (a very good herbicidal activity is given at values of at least 85)”. Also, the “herbicidal activity against SETFA” value in assay [4] (application rate 0.25 kg/ha) was “very good (a very good herbicidal activity is given at values of at least 85)”.
On to `CCC(C)(F)c1nc(N)nc(Nc2c(F)cccc2Oc2cc(C)cc(C)c2)n1` (centres unmarked) [Example 32], for which the “herbicidal activity against APESV” value in assay [1] (application rate 0.25 kg/ha) is recorded as “very good (a very good herbicidal activity is given at values of at least 85)”. Moreover, in assay [3] (application rate 0.25 kg/ha), the “herbicidal activity against ECHCG” value is listed as “very good (a very good herbicidal activity is given at values of at least 85)”. For the same molecule, the “herbicidal activity against SETFA” value in assay [4] (application rate 0.25 kg/ha) is “very good (a very good herbicidal activity is given at values of at least 85)”.
For the molecule `Cc1cc(C)cc(Oc2cccc(Cl)c2Nc2nc(N)nc(C(C)(C)F)n2)c1` [Example 37], in assay [1] (application rate 0.25 kg/ha), the “herbicidal activity against APESV” value is given as “very”. For the same molecule, in assay [3] (application rate 0.25 kg/ha), the “herbicidal activity against ECHCG” value is “good (a good herbicidal activity is given at values of at least 70)”.
`CC(C)(F)c1nc(N)nc(Nc2c(F)c(F)cc(-c3ccccc3)c2F)n1` [Example 44]: the “herbicidal activity against AMARE” value in assay [2] (application rate 0.5 kg/ha) is on record as “good to very good”. In addition, the “herbicidal activity against SETFA” value in assay [4] (application rate 0.5 kg/ha) is reported as “good (a good herbicidal activity is given at values of at least 70)”.
For `CN(C)c1cc(Oc2cccc(F)c2Nc2nc(N)nc(C(C)(C)F)n2)cc(C(F)(F)F)c1` [Example 80], the “herbicidal activity against ECHCG” value in assay [3] (application rate 125 g/ha) is reported as “very good (a very good herbicidal activity is given at values of at least 85)”. Also, in assay [4] (application rate 125 g/ha), the “herbicidal activity against SETFA” value is “very good (a very good herbicidal activity is given at values of at least 85)”.
Consider `COc1cc(I)cc(Oc2cccc(F)c2Nc2nc(N)nc(C(C)(C)F)n2)c1` [Example 84], for which the “herbicidal activity against AMARA” value in assay [2] (application rate 250 g/ha) is on record as “very good (a very good herbicidal activity is given at values of at least 85)”. Also, the “herbicidal activity against ECHCG” value in assay [3] (application rate 250 g/ha) is reported as “very good (a very good herbicidal activity is given at values of at least 85)”. The “herbicidal activity against SETFA” value in assay [4] (application rate 250 g/ha) is “very good (a very good herbicidal activity is given at values of at least 85)”.
As for `Cc1cc(Oc2cccc(F)c2Nc2nc(N)nc(C(C)(C)F)n2)cc(OC2CCCC2)c1` [Example 85], the “herbicidal activity against AMARA” value in assay [2] (application rate 250 g/ha) is given as “very good (a very good herbicidal activity is given at values of at least 85)”.
As for `Cc1cc(Oc2cccc(F)c2Nc2nc(N)nc(C(C)(C)F)n2)cc(OC2CCCCC2)c1` [Example 86], the “herbicidal activity against SEFTA” value in assay [4] (application rate 500 g/ha) is “good (a good herbicidal activity is given at values of at least 70)”.
For `CC(C)(F)c1nc(N)nc(Nc2c(F)cccc2Oc2cc(-c3ccccc3)cc(C(F)(F)F)c2)n1` [Example 87], the “herbicidal activity against AMARA” value in assay [2] (application rate 500 g/ha) is given as “very good (a very good herbicidal activity is given at values of at least 85)”. In assay [3] (application rate 500 g/ha), the “herbicidal activity against ECHCG” value is “very good (a very good herbicidal activity is given at values of at least 85)”. The “herbicidal activity against SETFA” value in assay [4] (application rate 500 g/ha) is recorded as “very good (a very good herbicidal activity is given at values of at least 85)”.
On to `CC(C)(F)c1nc(N)nc(Nc2c(F)cccc2Oc2cccc(C(F)(F)F)c2)n1` [Example 88], for which, in assay [2] (application rate 500 g/ha), the “herbicidal activity against AMARA” value was “very good (a very good herbicidal activity is given at values of at least 85)”. Besides, the “herbicidal activity against ECHCG” value in assay [3] (application rate 500 g/ha) was “very good (a very good herbicidal activity is given at values of at least 85)”. In assay [4] (application rate 500 g/ha), the “herbicidal activity against SETFA” value is recorded as “very good (a very good herbicidal activity is given at values of at least 85)”.
For `COC(=O)c1cccc(Oc2cccc(F)c2Nc2nc(N)nc(C(C)(C)F)n2)c1` [Example 91], the “herbicidal activity against APESV” value in assay [1] (application rate 500 g/ha) is listed as “very good (a very good herbicidal activity is given at values of at least 85)”.
Consider `CC(C)(C)c1cccc(Oc2cccc(F)c2Nc2nc(N)nc(C(C)(C)F)n2)c1` [Example 92], for which, in assay [1] (application rate 500 g/ha), the “herbicidal activity against APESV” value was “very good (a very good herbicidal activity is given at values of at least 85)”. Also, in assay [3] (application rate 500 g/ha), the “herbicidal activity against ECHCG” value is reported as “very good (a very good herbicidal activity is given at values of at least 85)”. In addition, the “herbicidal activity against SETFA” value in assay [4] (application rate 500 g/ha) was “very good (a very good herbicidal activity is given at values of at least 85)”.
On to `CC(C)(F)c1nc(N)nc(Nc2c(F)cccc2Oc2cccc(Br)c2)n1` [Example 93], for which the “herbicidal activity against APESV” value in assay [1] (application rate 500 g/ha) is listed as “very good (a very good herbicidal activity is given at values of at least 85)”. Besides, in assay [3] (application rate 500 g/ha), the “herbicidal activity against ECHCG” value is on record as “very good (a very good herbicidal activity is given at values of at least 85)”. The “herbicidal activity against SETFA” value in assay [4] (application rate 500 g/ha) is listed as “very good (a very good herbicidal activity is given at values of at least 85)”.
`CC(C)(F)c1nc(N)nc(Nc2c(F)cccc2Oc2cccc(Cl)c2)n1` [Example 94]: the “herbicidal activity against APESV” value in assay [1] (application rate 500 g/ha) was “very good (a very good herbicidal activity is given at values of at least 85)”. For the same molecule, the “herbicidal activity against ECHCG” value in assay [3] (application rate 500 g/ha) was “very good (a very good herbicidal activity is given at values of at least 85)”. Further, in assay [4] (application rate 500 g/ha), the “herbicidal activity against SETFA” value was “very good (a very good herbicidal activity is given at values of at least 85)”.
Take `CC(C)(F)c1nc(N)nc(Nc2c(F)cccc2Oc2cccc(OC(F)F)c2)n1` [Example 95]: in assay [1] (application rate 500 g/ha), the “herbicidal activity against APESV” value is on record as “very good (a very good herbicidal activity is given at values of at least 85)”. The “herbicidal activity against ECHCG” value in assay [3] (application rate 500 g/ha) is reported as “very good (a very good herbicidal activity is given at values of at least 85)”. In addition, the “herbicidal activity against SETFA” value in assay [4] (application rate 500 g/ha) is reported as “very good (a very good herbicidal activity is given at values of at least 85)”.
Turning to `CC(C)(F)c1nc(N)nc(Nc2c(F)cccc2Oc2cc(OC(F)(F)F)cc(-c3ccccc3)c2)n1` [Example 98], in assay [2] (application rate 500 g/ha), the “herbicidal activity against AMARE” value is listed as “very good (a very good herbicidal activity is given at values of at least 85)”. Moreover, in assay [3] (application rate 500 g/ha), the “herbicidal activity against ECHCG” value is listed as “very good (a very good herbicidal activity is given at values of at least 85)”. For the same molecule, in assay [4] (application rate 500 g/ha), the “herbicidal activity against SETFA” value is reported as “very good (a very good herbicidal activity is given at values of at least 85)”.
Take `CN(c1ccccc1)c1cccc(F)c1Nc1nc(N)nc(C(C)(C)F)n1` [Example 102]: the “herbicidal activity against AMARE” value in assay [2] (application rate 1000 g/ha) is “very good (a very good herbicidal activity is given at values of at least 85)”. Also, in assay [3] (application rate 1000 g/ha), the “herbicidal activity against ECHCG” value is listed as “very good (a very good herbicidal activity is given at values of at least 85)”. In assay [4] (application rate 1000 g/ha), the “herbicidal activity against SEFTA” value was “very good (a very good herbicidal activity is given at values of at least 85)”.
For the molecule `Cc1cccc(N(C)c2cccc(F)c2Nc2nc(N)nc(C(C)(C)F)n2)c1` [Example 103], the “herbicidal activity against AMARE” value in assay [2] (application rate 500 g/ha) is given as “very good (a very good herbicidal activity is given at values of at least 85)”. Further, the “herbicidal activity against ECHCG” value in assay [3] (application rate 500 g/ha) is “very good (a very good herbicidal activity is given at values of at least 85)”. Besides, the “herbicidal activity against SEFTA” value in assay [4] (application rate 500 g/ha) is listed as “very good (a very good herbicidal activity is given at values of at least 85)”.

Values taken from US10029992B2, “Diaminotriazine compounds and their use as herbicides” (BASF SE, priority 2014, dated 2018).
